Data: patent US20230023463A1, “COMPOSITION FOR PROMOTING HAIR THICKENING, COMPOSITION FOR SUSTAINING GROWTH PHASE IN HAIR CYCLE AND COMPOSITION FOR PROMOTING VEGF PRODUCTION, COMPOSITION FOR PROMOTING TRANSITION FROM RESTING PHASE TO GROWTH PHASE IN HAIR CYCLE AND COMPOSITION FOR PROMOTING FGF7 PRODUCTION, AND COMPOSITION FOR …” (priority 2020, published 2023)

What was measured:
Assay type in all cases: cell-based
[1] = system: VEGF production in hair papilla cells; assay: VEGF production in hair papilla cells (ELISA of culture supernatant); details: human hair papilla cells, cultured 3 days, vs control
Method: Using a papilla cell growth medium (PCGM) (Toyobo Co., Ltd.), human hair papilla cells (Toyobo Co., Ltd.) were cultured for 4 days on a collagen-coated dish, and seeded on a collagen-coated 48 well plate at a cell density of 1.2×10^4 cells/0.3 mL/well. The cells were cultured for one day in a carbon dioxide incubator (5 volume % carbon dioxide, 37° C.), and used for the evaluation of the VEGF production amount.
For the evaluation of the VEGF production amount, 20 kinds of amino acids were mixed at the composition shown in Table 1, the components other than amino acids were composed as in Dulbecco's modified Eagle medium (DMEM), glucose was added at 1 g/L, and the resulting medium was used as an evaluation medium.
L-citrulline, L-tryptophan, and L-glutamine were respectively dissolved in the evaluation medium to prepare each solution.
In the above-described hair papilla cell culture medium on the collagen-coated plate, the medium was replaced with the evaluation medium, the above-described respective solutions of L-citrulline, L-tryptophan, and L-glutamine were added at a given concentration, and the cells were cultured for 3 days at 37° C., 5 volume % carbon dioxide (n=4 for L-citrulline, L-tryptophan, and L-glutamine at each addition concentration).
(§1) Then, the supernatant of the culture medium was collected, centrifuged at 1500 rpm, and the supernatant was collected and cryopreserved at −30° C.
Similar culture and treatment were performed without adding each solution of L-citrulline, L-tryptophan, and L-glutamine and used as the control.
The concentration of VEGF in the supernatant of the culture was measured by thawing the collected supernatant and using the VEGF Enzyme-Linked ImmunoSorbent Assay (ELISA) kit (Abcam Plc.).
The measurement results were converted to relative values (%) with the VEGF concentration in the control as 100, and shown as mean±standard error in FIGS. 1 to 3.

[2] = system: human hair papilla cells; assay: Proliferation of hair papilla cells, citrulline (Cell Counting kit-8); details: 2 mM, cultured one day, P<0.01, FIG. 5
Method: In the same manner as in Experimental Example 1, human hair papilla cells were cultured for 4 days, and seeded on a collagen-coated 96 well plate at a cell density of 2.5×10^3 cells/0.1 mL/well. The cells were cultured for one day in a carbon dioxide incubator (5 volume % carbon dioxide, 37° C.), and used for the evaluation of the proliferation of hair papilla cells. For the evaluation of the proliferation of hair papilla cells, the same evaluation medium as used in Experimental Example 1 was used.
L-citrulline was dissolved in the evaluation medium to prepare a solution.
In the above-mentioned hair papilla cell culture medium on the collagen-coated plate, the medium was replaced with the evaluation medium, the above-mentioned solution of L-citrulline was added to a concentration of 2 mM, and the cells were cultured for one day at 37° C., 5 volume % carbon dioxide (n=7).
Then the Cell Counting kit-8 (DOJINDO LABORATORIES) was added to each well by 10 μL, the plate was placed in a carbon dioxide incubator (5 volume % carbon dioxide, 37° C.) for 2 hr, and the absorbance at 450 nm was measured using a microplate reader.
Similar culture and treatment were performed without adding the solution of L-citrulline and used as the control.
The measurement results were converted to relative values (%) with the absorbance in the control as 100, and shown as mean±standard error in FIG. 5.

[3] = system: human hair papilla cells; assay: Proliferation of hair papilla cells, ornithine (Cell Counting kit-8); details: cultured one day, P<0.05 or P<0.01, FIG. 6
Method: In the same manner as in Experimental Example 1, human hair papilla cells were cultured for 4 days, and seeded on a collagen-coated 96 well plate at a cell density of 2.5×10^3 cells/0.1 mL/well. The cells were cultured for one day in a carbon dioxide incubator (5 volume % carbon dioxide, 37° C.), and used for the evaluation of the proliferation of hair papilla cells. For the evaluation of the proliferation of hair papilla cells, a medium having the same amino acid composition as the evaluation medium used in Experimental Example 1 and other components diluted at a ¼ concentration was used as the evaluation medium.
L-ornithine was dissolved in the above-mentioned evaluation medium to prepare a solution. […]
Then the Cell Counting kit-8 (DOJINDO LABORATORIES) was added to each well by 10 μL, the plate was placed in a carbon dioxide incubator (5 volume % carbon dioxide, 37° C.) for 2 hr, and the absorbance at 450 nm was measured using a microplate reader. […]
The measurement results were converted to relative values (%) with the absorbance in the control as 100, and shown as mean±standard error in FIG. 6.

[4] = system: FGF7 production in hair papilla cells; assay: FGF7 production in hair papilla cells (ELISA of culture supernatant); details: human hair papilla cells, cultured 3 days, vs control, P<0.05 or P<0.01, FIG. 4
Method: In the same manner as in Experimental Example 1, human hair papilla cells were cultured for 4 days, and seeded on a collagen-coated 48 well plate at a cell density of 1.2×10^4 cells/0.3 mL/well. The cells were cultured for one day in a carbon dioxide incubator (5 volume % carbon dioxide, 37° C.), and used for the evaluation of the FGF7 production amount. For the evaluation of the FGF7 production amount, the same evaluation medium as in Experimental Example 1 was used.
L-ornithine was dissolved in the evaluation medium to prepare a solution.
In the above-mentioned hair papilla cell culture medium on the collagen-coated plate, the medium was replaced with the evaluation medium, the above-mentioned solution of L-ornithine was added at a given concentration, and the cells were cultured for 3 days at 37° C., 5 volume % carbon dioxide (n=3 at each addition concentration).
Similar culture and treatment were performed without adding the solution of L-ornithine, and used as the control.
as §1
The concentration of FGF7 in the supernatant of the culture was measured by thawing the collected supernatant and using the FGF7 Enzyme-Linked ImmunoSorbent Assay (ELISA) kit (Abcam Plc.). […]

Q: Which results are given for `NC(=O)NCCCC(N)C(=O)O` [L-citrulline, 2-amino-5-(carbamoylamino)pentanoic acid]?
A: addition concentration at which a significant increase in the VEGF production was observed ([1]; P<0.01 or P<0.001, FIG. 1): not less than 4.56 μM; number of hair papilla cells as compared with the control [2]: significant increase

Q: Which “addition concentration at which a significant increase in the VEGF production was observed” value ([1]; P<0.01 or P<0.001, FIGS. 2, 3) does the source give for `NC(=O)CCC(N)C(=O)O` [L-glutamine, 2-amino-4-carbamoylbutanoic acid] here?
A: not less than 0.44 mM

Q: With `NCCCC(N)C(=O)O` [L-ornithine, 2,5-diamino pentanoic acid] as the molecule, how does the “number of hair papilla cells as compared with the control” value ([3]; 756 μM) read?
A: significant increase

Q: What about the “number of hair papilla cells as compared with the control” value ([3]; 3.7 mM) of the same molecule?
A: significant increase

Q: What about the “addition concentration at which a significant increase in the FGF7 production amount was observed” value [4] of the same molecule?
A: not less than 151 μM

Q: Which “addition concentration at which a significant increase in the VEGF production was observed” value ([1]; P<0.01 or P<0.001, FIGS. 2, 3) does the source give for `N[C@@H](Cc1c[nH]c2ccccc12)C(=O)O` [L-tryptophan, 2-amino-3-(indolyl)propionic acid] here?
A: not less than 0.01 mM
